In PMC5655428, “Discovery and pharmacological characterization of a new class of prolyl-tRNA synthetase inhibitor for anti-fibrosis therapy” (PLoS ONE, 2017):

What was measured:
human skin fibroblast = assay: Transcriptome analysis (AmpliSeq) and gene signature analysis; type: cell-based; settings: 300 nM, 24 h; >1.2-fold change, FDR < 0.05
Protocol: The Ion AmpliSeq Transcriptome Human Gene Expression Kit (ThermoFisher, Waltham, MA, USA) enables the simultaneous measurement of the expression levels of over 20,000 human genes in a single assay. AmpliSeq human-transcriptome libraries were constructed and sequenced by using the Ion Proton platform, according to the manufacturer’s instructions. Briefly, total RNA was extracted from human skin fibroblast treated with compounds for 24 h using the RNeasy Mini Kit. Reverse transcription was performed on 10 ng of the prepared total RNA samples using the AmpliSeq Whole Transcriptome primers with the included SuperScript® VILO^TM cDNA Synthesis kit (Life Technologies). Amplicons were ligated to adapters, and the resulting libraries were purified using Agencourt AMPure XP reagents (Beckman Coulter, Brea, CA, USA) and diluted to the concentration of 75 pM. Templated libraries were sequenced with the Ion Proton sequencer (ThermoFisher). AmpliSeq sequencing data were analyzed using the Ion Torrent Mapping Alignment Program. Identification of differentially expressed genes (DEGs) and comparative gene signature analysis were done in NextBio (http://nextbio.com). Gene expression data was taken by using our ATP-competitive PRS inhibitor analog (IC50: < 3.0 nM). […]

27 kinases = assay: kinase panel experiment; type: biochemical; settings: almost no inhibitory activity, read-out: IC50 against 27 kinases

Compound	number of genes with altered expression levels compared to vehicle-treated cells (human skin fibroblast)	IC50 (27 kinases)
O=C(CC1NCCCC1O)Cn1cnc2cc(Br)c(Cl)cc2c1=O (centres unmarked) [HF, Halofuginone, reference compound]	8229 genes	
Cn1cc(-c2cc(F)cc(CNC(=O)c3nccc4nc(C5CCCC5)[nH]c34)c2)cn1 [T-3833261, 2-Cyclopentyl-N-(3-fluoro-5-(1-methyl-1H-pyrazol-4-yl)benzyl)-3H-imidazo[4,5-c]pyridine-4-carboxamide]		> 1000 nM
